Values quoted from earlier work as cited in US12404524B2, “Expression vector” (priority 2019, dated 2025).

System: common Streptomyces expression strains
Details: inducers of Potr and PnitA in single-gene expression experiments

SMILES	effect on physiology or growth rate
CN(C)[C@@H]1C(O)=C(C(N)=O)C(=O)[C@@]2(O)C(O)=C3C(=O)c4c(O)cccc4[C@@](C)(O)[C@H]3[C@H](O)[C@@H]12 [oxytetracycline]	no effect
O=C1CCCCCN1 [ε-caprolactam]	no effect
